{"source": "patent US20150126465A1", "about": "“PROCESS FOR PRODUCING DERIVATIVES OF PYROSTEGIA VENUSTA, DERIVATIVES OF PYROSTEGIA VENUSTA, PHARMACEUTICAL COMPOSITIONS AND ITS USES” (priority 2011, published 2015)", "type_in_all_cases": "cell-based", "key": {"[1]": {"system": "Candida albicans USP 1565", "assay": "MIC by microdilution (CLSI M27-A2)", "conditions": "Candida albicans, USP1565; Table 12, C. albicans USP 1565, 48 h, 35° C.; read-out: MIC"}, "[2]": {"system": "Candida tropicalis USP B3", "assay": "MIC by microdilution (CLSI M27-A2)", "conditions": "Candida tropicalis, USPB3; Table 14, C. Tropicalis UPS B3; read-out: MIC"}, "[3]": {"system": "Candida parapsilosis USP 1933", "assay": "MIC/CFM by microdilution (CLSI M27-A2)", "conditions": "Lodderomyces parapsilosis, USP1933; for MIC: read-out: MIC"}, "C. Albicans USP 2": {"system": "C. Albicans USP 2", "assay": "MIC/CFM against Candida sp. strains"}, "Candida krusei ATCC 6258": {"system": "Candida krusei ATCC 6258", "assay": "MIC/CFM by microdilution (CLSI M27-A2)", "conditions": "Pichia kudriavzevii, ATCC6258, read-out: MIC"}, "Candida krusei USP 2223": {"system": "Candida krusei USP 2223", "assay": "MIC by microdilution (CLSI M27-A2)", "conditions": "Pichia kudriavzevii, USP2223, read-out: MIC"}, "[4]": {"system": "Candida parapsilosis ATCC 22019", "assay": "MIC/CFM by microdilution (CLSI M27-A2)", "conditions": "Lodderomyces parapsilosis, ATCC22019; for MIC: read-out: MIC"}, "[5]": {"system": "Candida albicans OF-M3-20", "assay": "MIC/CFM by microdilution (CLSI M27-A2)", "conditions": "Candida albicans, OFM320; for MIC: read-out: MIC", "protocol": "(§1) Pure substances termed P1 and P2 previously dissolved in 20% DMSO, were diluted in RPMI medium, with final concentrations of 96 μg.mL-1. […] The same was also tested individually, diluted in RPMI medium, with initial concentration of 1 μL.mL-1. […] Cultures of Candida sp. were prepared and standardized in […] saline solution at 0.85%. For inoculums standardization, a spectrophotometer equipment was used, with wavelength at 530 nm and absorbance adjustment between 0.130 and 0.150, having as white the saline solution free of inoculum or any other contaminant, corresponding to concentrations of 10^6 CFU/mL. In this condition the inoculum “mother” was diluted 50 times and from this inoculum “child” the dilution was performed 20 times to obtain a standard inoculum in 10^3 cells per well. […] To aid in the growth view, were added to the wells dye 50 μL 2,3,5-triphenyltetrazolium chloride (TTC) at 5 mg.mL “1, being performed the readings after 4 hours of incubation. Prior to the addition of dye, aliquots of 96-well plate were transferred to Petri with Agar-Sabouraud Dextrose to determine the Minimum Fungicidal Concentration. Plates were incubated for 24 hours at 35° C."}, "[6]": {"system": "Candida albicans OF-M7-19", "assay": "MIC/CFM by microdilution (CLSI M27-A2)", "conditions": "Candida albicans, OFM719; for MIC: read-out: MIC", "protocol": "as §1"}, "Candida albicans USP 1": {"system": "Candida albicans USP 1", "assay": "MIC/CFM by microdilution (CLSI M27-A2)", "conditions": "Candida albicans, USP1; for MIC: read-out: MIC", "protocol": "as §1"}, "[7]": {"system": "Candida albicans ATCC 10231", "assay": "MIC/CFM by microdilution (CLSI M27-A2)", "conditions": "Candida albicans, ATCC10231; for MIC: read-out: MIC"}, "[8]": {"system": "Microsporum canis ATCC 32903", "assay": "MIC by microdilution, filamentous fungi (CLSI M38-A)", "conditions": "ATCC32903, 168 h; Table 13, Microsporum canis ATCC 32903, 7 days, 28° C.; read-out: MIC", "protocol": "(§2) Pure substances termed P1 and P2 previously dissolved in 20% DMSO, were diluted in RPMI medium, with final concentrations of 96 μg.mL-1. […] Cultures of filamentous fungi described below were inoculated in Agar-Batata Dextrose medium and inoculated for 7 days, at 28° C. Colonies of cultures inoculated for 7 days in an oven at 28° C. were shrouded with 0.85% saline solution, scraped and then transferred to conical tubes. After resting for 5 minutes, the supernatant was transferred to new conical tubes for subsequent quantification in spectrophotometer, at 530 nm, with the transmittance adjustment of 80-82% for A. niger and 70% for other microorganisms. After adjustment, there was a 1:50 dilution in RPM. The determination of Minimum Inhibitory Concentration was performed after 7 days, at 28° C. After the incubation period, aliquots of 96-well plates were transferred to Petri plates with Potato Dextrose Agar, to determine the Minimum Fungicidal Concentration. Plates were inoculated for more 7 days, at 28° C."}, "[9]": {"system": "Phomopsis longicolla (soy isolate)", "assay": "MIC by microdilution, filamentous fungi (CLSI M38-A)", "conditions": "Diaporthe longicolla, 168 h; Table 13, Phomopsis longicolla- soy, 7 days, 28° C.; read-out: MIC", "protocol": "as §2"}, "[10]": {"system": "Trichophyton menthagrophyton ATCC 9533", "assay": "MIC by microdilution, filamentous fungi (CLSI M38-A)", "conditions": "ATCC9533, 168 h; Table 13, Trichophyton menthagrophyton ATCC 9533, 7 days, 28° C.; read-out: MIC", "protocol": "as §2"}, "[11]": {"system": "Candida guilhermondii USP", "assay": "MIC/CFM by microdilution (CLSI M27-A2)", "conditions": "for MIC: read-out: MIC"}, "Candida glabrata ATCC": {"system": "Candida glabrata ATCC", "assay": "MIC/CFM against Candida sp. strains", "conditions": "Nakaseomyces glabratus, Table 14, Candida glabrata ATCC"}}, "note": "Where two headings read alike, the source gives them in different places.", "data": [{"smiles": "Clc1ccc(COC(Cn2ccnc2)c2ccc(Cl)cc2Cl)c(Cl)c1", "note": "(stereo not shown) [Miconazol]", "values": [{"measurement": "MIC", "setting": "[1]", "result": "< 0.125", "unit": "µg/mL"}, {"measurement": "MIC", "setting": "[2]", "result": "< 0.5", "unit": "µg/mL"}, {"measurement": "MIC", "setting": "[3]; Table 12, C. parapsilosis USP 1933, 48 h, 35° C.", "result": 1, "unit": "µg/mL"}, {"measurement": "MFC", "setting": "[3]; Table 14, C. parapsilosis USP 1933 ATCC, read-out: CFM (Minimum Fungicidal Concentration)", "result": "< 0.5", "unit": "µg/mL"}, {"measurement": "MIC", "setting": "[3]; Table 14, C. parapsilosis USP 1933 ATCC", "result": "< 0.5", "unit": "µg/mL"}, {"measurement": "MIC", "setting": "C. Albicans USP 2; Table 14, C. Albicans USP 2", "result": "< 0.5", "unit": "µg/mL"}, {"measurement": "MFC", "setting": "C. Albicans USP 2; Table 14, C. Albicans USP 2, read-out: CFM (Minimum Fungicidal Concentration)", "result": "< 0.5", "unit": "µg/mL"}, {"measurement": "MIC", "setting": "Candida krusei ATCC 6258; Table 12, C. krusei ATCC 6258, 48 h, 35° C.", "result": "< 1", "unit": "µg/mL"}, {"measurement": "MIC", "setting": "Candida krusei ATCC 6258; Table 14, C. krusei ATCC", "result": 1, "unit": "µg/mL"}, {"measurement": "MIC", "setting": "Candida krusei USP 2223; Table 12, C. krusei USP 2223, 48 h, 35° C.", "result": 1, "unit": "µg/mL"}, {"measurement": "MIC", "setting": "Candida krusei USP 2223; Table 14, C. krusei USP 2223", "result": 4, "unit": "µg/mL"}, {"measurement": "MIC", "setting": "[4]; Table 12, C. parapsilosis ATCC 22019, 48 h, 35° C.", "result": 1, "unit": "µg/mL"}, {"measurement": "MFC", "setting": "[4]; Table 14, C. parapsilosis ATCC 22019, read-out: CFM (Minimum Fungicidal Concentration)", "result": 1, "unit": "µg/mL"}, {"measurement": "MIC", "setting": "[4]; Table 14, C. parapsilosis ATCC 22019", "result": 1, "unit": "µg/mL"}, {"measurement": "MIC", "setting": "[5]; Table 12, C. albicans OF M3-20, 48 h, 35° C.", "result": "< 0.125", "unit": "µg/mL"}, {"measurement": "MFC", "setting": "[5]; Table 14, C. Albicans OF M3-20, read-out: CFM (Minimum Fungicidal Concentration)", "result": "< 0.5", "unit": "µg/mL"}, {"measurement": "MIC", "setting": "[5]; Table 14, C. Albicans OF M3-20", "result": "< 0.5", "unit": "µg/mL"}, {"measurement": "MIC", "setting": "[6]; Table 12, C. albicans OF M7-19, 48 h, 35° C.", "result": "< 0.125", "unit": "µg/mL"}, {"measurement": "MFC", "setting": "[6]; Table 14, C. Albicans OF M7-19, read-out: CFM (Minimum Fungicidal Concentration)", "result": "< 0.5", "unit": "µg/mL"}, {"measurement": "MIC", "setting": "[6]; Table 14, C. Albicans OF M7-19", "result": "< 0.5", "unit": "µg/mL"}, {"measurement": "MIC", "setting": "Candida albicans USP 1; Table 12, C. albicans USP 1, 48 h, 35° C.", "result": "< 0.125", "unit": "µg/mL"}, {"measurement": "MFC", "setting": "Candida albicans USP 1; Table 14, C. Albicans USP 1, read-out: CFM (Minimum Fungicidal Concentration)", "result": 4, "unit": "µg/mL"}, {"measurement": "MIC", "setting": "Candida albicans USP 1; Table 14, C. Albicans USP 1", "result": 1, "unit": "µg/mL"}, {"measurement": "MIC", "setting": "[7]; Table 12, C. albicans ATCC 10231, 48 h, 35° C.", "result": 4, "unit": "µg/mL"}, {"measurement": "MFC", "setting": "[7]; Table 14, C. Albicans ATCC 10231, read-out: CFM (Minimum Fungicidal Concentration)", "result": 1, "unit": "µg/mL"}, {"measurement": "MIC", "setting": "[7]; Table 14, C. Albicans ATCC 10231", "result": "< 0.5", "unit": "µg/mL"}, {"measurement": "MIC", "setting": "[8]", "result": 2, "unit": "µg/mL"}, {"measurement": "MIC", "setting": "[9]", "result": "< 0.125", "unit": "µg/mL"}, {"measurement": "MIC", "setting": "[10]", "result": 2, "unit": "µg/mL"}, {"measurement": "MIC", "setting": "[11]; Candida, Table 12, C. guilhermondii USP, 48 h, 35° C.", "result": 2, "unit": "µg/mL"}, {"measurement": "MFC", "setting": "[11]; Table 14, Candida guilhermondi USPATCC, read-out: CFM (Minimum Fungicidal Concentration)", "result": 1, "unit": "µg/mL"}, {"measurement": "MIC", "setting": "[11]; Table 14, Candida guilhermondi USPATCC", "result": 1, "unit": "µg/mL"}, {"measurement": "MIC", "setting": "Candida glabrata ATCC", "result": "< 0.5", "unit": "µg/mL"}, {"measurement": "MFC", "setting": "Candida glabrata ATCC; read-out: CFM (Minimum Fungicidal Concentration)", "result": 2, "unit": "µg/mL"}]}]}
